# Results as given in patent publication US8268792B2, “Use of an active ingredient combination that contains hydroxystilbene for preventing and/or treating diseases” (Carl-Friedrich Spaich, priority 2005, dated 2012).
# Entries after “also recorded” stand apart in the source; their conditions may differ.
# Assays:
# [1] = In vivo accumulation of ERr 731® ingredients in dog plasma (100, 300, 1000 mg/kg/day); parameters: species or system dog (pure-bred beagles); conditions: male and female dogs, ERr 731® 100, 300, 1000 mg/kg body weight/day, day 1
# Method: (§1) These plasma samples were processed as follows: 500 μl of plasma were mixed with 25 μl of an internal standard working solution (2.5 ng/μl rhaponticin or rhapontigenin in methanol) and then mixed with 500 μl of isotonic NaCl solution and 2.5 ml of diethyl ether/butanol (9/1; v/v). After shaking and centrifugation (10 minutes at 4600 rpm), about 2 ml of the supernatant were removed and dried under a stream of nitrogen (at 60° C.). The pellet was taken up in 50 μl of methanol. Addition of 200 μl of distilled water was followed by renewed mixing, and 200 μl were pipetted into autosampler tubes (light-protected). 30 μl of the samples were injected for analysis into an LC-MS/MS system (PE Sciex API 3000). Chromatographic separation of the analytes took place on a Phenomenex Polymer X column with a gradient of an ammonium buffer solution and an acetonitrile/methanol mixture as mobile phase.
# On day 1, 5 ml of blood were taken from the animals after 0, 0.5, 1, 2, 4, 8 and 24 hours in each case, and plasma was obtained. The analysis as described in section a) was carried out thereon in order to detect rhaponticin, deoxyrhaponticin, rhapontigenin, deoxyrhapontigenin, resveratrol and piceatannol in blood. The results of the test are depicted in FIG. 2a.
# [2] = molecular target: T1, estrogen receptor β (ERβ) (Homo sapiens, UniProt Q92731); experiment: ERβ/mC3-luciferase transactivation in transfected HEC-1B cells; type: cell-based; conditions: HEC-1B cells cotransfected with hERβ and mC3-Luc, 24 hours incubation
# T1 construct: expressed in transfected cells; host or cells: HEC-1B human endometrial adenocarcinoma cells (no endogenous ERα or ERβ)
# T1 sequence (Q92731 whole entry): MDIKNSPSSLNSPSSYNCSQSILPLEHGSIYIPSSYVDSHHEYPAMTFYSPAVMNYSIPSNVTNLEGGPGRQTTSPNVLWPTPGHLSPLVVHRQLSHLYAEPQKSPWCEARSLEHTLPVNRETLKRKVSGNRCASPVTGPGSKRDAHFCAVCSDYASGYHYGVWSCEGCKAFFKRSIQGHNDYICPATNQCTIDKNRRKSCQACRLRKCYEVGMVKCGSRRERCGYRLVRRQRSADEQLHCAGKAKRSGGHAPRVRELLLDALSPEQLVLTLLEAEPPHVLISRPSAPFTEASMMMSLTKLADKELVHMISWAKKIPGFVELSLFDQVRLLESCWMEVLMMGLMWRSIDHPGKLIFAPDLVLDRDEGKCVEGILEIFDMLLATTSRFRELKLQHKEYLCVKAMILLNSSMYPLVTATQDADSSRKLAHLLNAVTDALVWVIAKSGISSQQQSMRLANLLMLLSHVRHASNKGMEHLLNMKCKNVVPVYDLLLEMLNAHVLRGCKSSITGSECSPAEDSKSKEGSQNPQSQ
# Excerpt: They therefore represent a possible way of investigating, in a human and endometrial context, ligand-dependent effects of substances on the transactivation mechanisms in relation to different receptor subtypes and different estrogen-responsive promoters.
# An established ERβ/mC3-luciferase system was employed. For this purpose, HEC-1B cells were applied in 24-well plates with a density of 95 000 cells/well (in Dulbecco's modified Essential Medium (DMEM/F12)). The next day, they were cotransfected with an ERβ-containing construct (hERβ/pSG2) and a triple-ERE-containing promoter/luciferase construct (mC3-Luc/pGL2) (Hillisch et al. Dissecting physiological roles of estrogen receptor alpha and beta with potent selective ligands from structure-based design. Mol. Endocrinol. 2004 July; 18:1599-609). The transient transfection took place using DOTAP (N-[1-(2,3-dioleoyloxy)]-N,N,N-trimethylammoniumpropane methylsulfate, Roth) as described by the manufacturer.
# After 24 hours, the cells were treated with appropriate concentrations of the substances or substance mixtures to be investigated. […] The incubation time was 24 hours. The cells were then lysed. The Luciferase Assay® kit (Promega) was used to determine the luciferase activity on the one hand, and the BCA® kit (Sigma) was used to determine the protein content on the other hand. […]
# [3] = test system: transcription factor NF-κB; conditions: cited from earlier work
# [4] = Dissolving tests with ERr 731® in ethanol and glycerol; type: physicochemical
# [5] = test system: AR-dependent gene expression; conditions: depending on the concentration; cited from earlier work
# [6] = test system: hormone-sensitive and -insensitive prostate cancer cells; conditions: pure resveratrol; cited from earlier work
# HL60 leukemia cells = conditions: cited from earlier work
# [7] = test system: bacteria of the human intestinal tract; conditions: cited from earlier work
# [8] = Pharmacokinetics of ERr 731® ingredients in subject after oral intake (plasma, LC-MS/MS); type: in vivo, human; conditions: volunteer
# Method: Subsequently, 10 ml of blood was taken at various times (as indicated in FIG. 1) and the plasma was obtained by centrifugation.
# as §1
# [9] = Test A: 200 mg of dry extract in 50 ml of glycerol R
# [10] = Test B: 200 mg of dry extract in 50 ml of ethanol 30% R
# [11] = Test C: 200 mg of dry extract in 50 ml of ethanol 50% R
# [12] = Test D: 200 mg of dry extract in 50 ml of ethanol 86% R
accumulation (AUC 0-24 h) in dog plasma [1],"content found dissolved [4, 9]","dissolved, of theory [4, 9]","content found dissolved [4, 10]","dissolved, of theory [4, 10]","content found dissolved [4, 11]","dissolved, of theory [4, 11]","content found dissolved [4, 12]","dissolved, of theory [4, 12]",Structure (SMILES),effect on transcription factor NF-κB [3],also measured
undetectable,–,–,–,–,–,–,–,–,"COc1ccc(C=Cc2cccc(O)c2)cc1O [deoxyrhapontigenin, 3′,5-Dihydroxy-4′-methoxystilbene]",–,activation of ERβ (relative luciferase activity vs DMSO control) [2]: activate the ERβ dose-dependently; also recorded: effective only at higher concentrations
–,–,–,–,–,–,–,–,–,Oc1cc(O)cc(/C=C/c2ccc(O)c(O)c2)c1 [piceatannol],inhibitory effect,–
dose-dependent accumulation,27.1% deoxyrhaponticin,(90.6% of theory),25.2% deoxyrhaponticin,(84.2% of theory),29.0% deoxyrhaponticin,(97.0% of theory),29.5% deoxyrhaponticin,(98.7% of theory),COc1ccc(C=Cc2cc(O)cc(O[C@@H]3O[C@H](CO)[C@@H](O)[C@H](O)[C@H]3O)c2)cc1 [deoxyrhaponticin],–,–
–,–,–,–,–,–,–,–,–,Oc1ccc(C=Cc2cc(O)cc(O)c2)cc1 [resveratrol],–,AR-dependent gene expression [5]: an increase or inhibition of AR-dependent gene expression was observed; apoptotic effect on prostate cancer cells [6]: apoptotic effect; apoptotic effect on HL60 leukemia cells (HL60 leukemia cells): apoptotic effect
dose-dependent accumulation,55.1% rhaponticin,(89.0% of theory),52.2% rhaponticin,(84.3% of theory),58.8% rhaponticin,(95.0% of theory),59.8% rhaponticin,(96.6% of theory),"COc1ccc(C=Cc2cc(O)cc(O[C@@H]3O[C@H](CO)[C@@H](O)[C@H](O)[C@H]3O)c2)cc1O [rhaponticin, 3,3′,5-Trihydroxy-4′-methoxystilbene 3-O-β-D-glucopyranoside]",inactive,degradation by intestinal bacteria [7]: degraded by bacteria of the human intestinal tract to rhapontigenin; time of maximum in the blood ([8]; oral 40 mg ERr 731®): 3 to 4 h; detection in the blood (plasma) ([8]; oral 10 tablets = 40 mg ERr 731®): detected in the blood
